Data published in patent US8268862B2, “Sirtuin modulating compounds” (Sirtris Pharmaceuticals, Inc., priority 2007, dated 2012).

Target: T1, SIRT1 (Homo sapiens, UniProt Q96EB6)
T1 sequence (Q96EB6 1-747): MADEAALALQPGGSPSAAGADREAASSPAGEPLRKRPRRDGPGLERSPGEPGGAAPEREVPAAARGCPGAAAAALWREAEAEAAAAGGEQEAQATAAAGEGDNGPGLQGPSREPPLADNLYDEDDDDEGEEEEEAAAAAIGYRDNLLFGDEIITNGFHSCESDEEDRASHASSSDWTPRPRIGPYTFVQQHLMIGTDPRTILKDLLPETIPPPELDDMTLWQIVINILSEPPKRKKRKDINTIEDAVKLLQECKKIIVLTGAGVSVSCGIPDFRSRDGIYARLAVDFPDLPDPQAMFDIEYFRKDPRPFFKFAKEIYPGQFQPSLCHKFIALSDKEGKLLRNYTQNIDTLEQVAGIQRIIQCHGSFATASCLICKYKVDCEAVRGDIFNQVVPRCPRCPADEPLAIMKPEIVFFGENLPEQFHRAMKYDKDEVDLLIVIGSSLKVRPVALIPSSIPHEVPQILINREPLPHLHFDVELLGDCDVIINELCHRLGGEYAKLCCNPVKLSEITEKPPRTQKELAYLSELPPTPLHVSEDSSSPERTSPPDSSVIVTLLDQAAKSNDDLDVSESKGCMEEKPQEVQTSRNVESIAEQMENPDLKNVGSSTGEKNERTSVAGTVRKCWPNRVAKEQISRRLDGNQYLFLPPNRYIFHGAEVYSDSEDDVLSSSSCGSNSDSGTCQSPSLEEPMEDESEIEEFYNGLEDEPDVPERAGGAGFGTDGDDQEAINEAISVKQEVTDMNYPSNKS
Assay: mass spectrometry based SIRT1 deacetylation assay (activation)
Format: biochemical
Conditions: 0.5 μM peptide substrate, 120 μM βNAD+, 10 nM SIRT1, 25 min at 25° C.; for EC1.5 (concentration of test compound that results in 150% activation of SIRT1): NA = not active in the assay; for Emax: read-out: % FOLD ACT. (percent maximum fold activation of SIRT1)
Excerpt: A mass spectrometry based assay was used to identify modulators of SIRT1 activity. The mass spectrometry based assay utilizes a peptide having 20 amino acid residues as follows: Ac-EE-K(biotin)-GQSTSSHSK(Ac)NleSTEG-K(5TMR)-EE-NH2 (SEQ ID NO: 1) wherein K(Ac) is an acetylated lysine residue and Nle is a norleucine. The peptide is labeled with the fluorophore 5TMR (excitation 540 nm/emission 580 nm) at the C-terminus. The sequence of the peptide substrate is based on p53 with several modifications. In addition, the methionine residue naturally present in the sequence was replaced with the norleucine because the methionine may be susceptible to oxidation during synthesis and purification.
Test compounds may be added to the reaction as described above. […] After the 25 minute incubation with SIRT1, 10 μL of 10% formic acid is added to stop the reaction. Reactions are sealed and frozen for later mass spec analysis. Determination of the mass of the substrate peptide allows for precise determination of the degree of acetylation (i.e. starting material) as compared to deacetylated peptide (product).
A control for inhibition of sirtuin activity is conducted by adding 1 μL of 500 mM nicotinamide as a negative control at the start of the reaction (e.g., permits determination of maximum sirtuin inhibition). A control for activation of sirtuin activity is conducted using 10 nM of sirtuin protein, with 1 μL of DMSO in place of compound, to determine the amount of deacetylation of the substrate at a given timepoint within the linear range of the assay. This timepoint is the same as that used for test compounds and, within the linear range, the endpoint represents a change in velocity.
For the above assay, SIRT1 protein was expressed and purified as follows. […] The protein was expressed by induction with 1 mM IPTG as an N-terminal His-tag fusion protein at 18° C. overnight and harvested at 30,000×g. Cells were lysed with lysozyme in lysis buffer (50 mM Tris-HCl, 2 mM Tris[2-carboxyethyl]phosphine (TCEP), 10 μM ZnCl2, 200 mM NaCl) and further treated with sonication for 10 min for complete lysis. The protein was purified over a Ni-NTA column (Amersham) and fractions containing pure protein were pooled, concentrated and run over a sizing column (Sephadex S200 26/60 global). The peak containing soluble protein was collected and run on an Ion-exchange column (MonoQ). Gradient elution (200 mM-500 mM NaCl) yielded pure protein. This protein was concentrated and dialyzed against dialysis buffer (20 mM Tris-HCl, 2 mM TCEP) overnight. The protein was aliquoted and frozen at −80° C. until further use.
Sirtuin modulating compounds that activated SIRT1 were identified using the assay described above and are shown below in Table 3. The EC1.5 values represent the concentration of test compounds that result in 150% activation of SIRT1. NT means that the compound was not tested using the indicated assay. NA means that the compound was not active in the indicated assay.

SMILES | EC1.5 (concentration of test compound that results in 150% activation of SIRT1) [NM] | Emax [%]
COCCN1CCN(Cc2cnc3sc(-c4ccccc4NC(=O)c4cccc(-c5ccc(C#N)cc5)n4)nc3c2)CC1 [Compound 144] | 559 | 402
COCCN1CCN(Cc2cnc3sc(-c4ccccc4NC(=O)c4cccc(-c5ccccc5Cl)n4)nc3c2)CC1 [Compound 133] | 90 | 500
O=C(Nc1ccccc1-c1nc2cc(CN3CC[C@@H](F)C3)cnc2s1)c1cccc(-c2ccccc2)c1 [Compound 25] | 469 | 203
COCCN1CCN(Cc2cnc3sc(-c4ccccc4NC(=O)c4sc(-c5cccnc5)nc4C)nc3c2)CC1 [Compound 85] | 16700 | 182
CN1CCN(Cc2cnc3sc(-c4ccccc4NC(=O)c4ccc5ccccc5n4)nc3c2)CC1 [Compound 90] | 190 | 221
Cc1nc(-c2cccnc2)sc1C(=O)Nc1ccccc1-c1nc2cc(CNC(C)C)cnc2s1 [Compound 83] | – | 100
O=C(Nc1ccccc1-c1nc2cc(CN3CCOCC3)cnc2s1)c1nc2ccccc2s1 [Compound 93] | 510 | 236
COCCN1CCN(Cc2cnc3sc(-c4ccccc4NC(=O)c4cccc(-c5ccccc5F)n4)nc3c2)CC1 [Compound 134] | 69 | 500
CC(C)NCc1cnc2sc(-c3ccccc3NC(=O)c3cccc(-c4ccncc4)c3)nc2c1 [Compound 22] | 2620 | 417
O=C(Nc1ccccc1-c1nc2cc(CN3CCNCC3)cnc2s1)c1cccc(-c2cccnc2)c1 [Compound 9] | 416 | 392
O=C(Nc1ccccc1-c1nc2cc(CN3CCCC3)cnc2s1)c1cccc(-c2ccccn2)c1 [Compound 20] | 687 | 224
O=C(Nc1ccccc1-c1nc2cc(CN3CCCC3)cnc2s1)c1ccc2ccccc2n1 [Compound 95] | 160 | 252
O=C(Nc1ccccc1-c1nc2cc(CN[C@@H]3CCC[C@H]3O)cnc2s1)c1ccc2ccccc2n1 [Compound 121] | 750 | 291
Cc1nc(-c2cccnc2)sc1C(=O)Nc1ccccc1-c1nc2cc(CN3CCC(N)CC3)cnc2s1 [Compound 78] | 565 | 297
CN(C)Cc1cnc2sc(-c3ccccc3NC(=O)c3cnc4ccccc4n3)nc2c1 [Compound 92] | 2810 | 163
O=C(Nc1ccccc1-c1nc2cc(CN3CC[C@@H](F)C3)cnc2s1)c1cccc(-c2cccc(F)c2)n1 [Compound 54] | 110 | 538
O=C(Nc1ccccc1-c1nc2cc(CNC3CCNCC3)cnc2s1)c1ccc2ccccc2n1 [Compound 116] | 270 | > 500
O=C(Nc1ccccc1-c1nc2cc(CN3CCC(F)(F)CC3)cnc2s1)c1ccc2ccccc2n1 [Compound 102] | – | 131
O=C(Nc1ccccc1-c1nc2cc(CN3CCCC3)cnc2s1)c1cccc(-c2ccccc2)n1 [Compound 60] | 144 | 477

SMILES | EC1.5 (concentration of test compound that results in 150% activation of SIRT1) [NM] | Emax [%]
O=C(Nc1ccccc1-c1nc2cc(CN3CCOCC3)cnc2s1)c1cccc(-c2cccc(F)c2)c1 [Compound 49] | 319 | 192
COCCN1CCN(Cc2cnc3sc(-c4ccccc4NC(=O)c4cccc(-c5ccncc5)c4)nc3c2)CC1 [Compound 59] | 492 | 279
O=C(Nc1ccccc1-c1nc2cc(CN[C@H]3CCNC3)cnc2s1)c1ccc2ccccc2n1 [Compound 120] | 820 | > 500
O=C(Nc1ccccc1-c1nc2cc(CN3CCC(F)CC3)cnc2s1)c1ccc2ccccc2n1 [Compound 114] | – | 146
COCCN1CCN(Cc2cnc3sc(-c4ccccc4NC(=O)c4cccc(-c5cccc(F)c5)n4)nc3c2)CC1 [Compound 57] | 41 | > 500
COCCN1CCN(Cc2cnc3sc(-c4ccccc4NC(=O)c4cc(-c5ccccc5)n[nH]4)nc3c2)CC1 [Compound 152] | 321 | > 500
NC1CCN(Cc2cnc3sc(-c4ccccc4NC(=O)c4ccc5ccccc5n4)nc3c2)CC1 [Compound 115] | 620 | > 500
COCCN1CCN(Cc2cnc3sc(-c4ccccc4NC(=O)c4cccc(-c5cccc(Cl)c5)n4)nc3c2)CC1 [Compound 138] | 88 | 497
Cn1cc(-c2ccccc2)cc1C(=O)Nc1ccccc1-c1nc2cc(CN3CCCC3)cnc2s1 [Compound 151] | 591 | 170
O=C(Nc1ccccc1-c1nc2cc(CN3CC[C@@H](F)C3)cnc2s1)c1ccc2ccccc2n1 [Compound 113] | 370 | 232
O=C(Nc1ccccc1-c1nc2cc(CN3CCOCC3)cnc2s1)c1nc2ccccc2o1 [Compound 98] | – | 139
O=C(Nc1ccccc1-c1nc2cc(CN3CCOCC3)cnc2s1)c1cncc(-c2cccc(F)c2)c1 [Compound 51] | 1640 | 172
NC1CCN(Cc2cnc3sc(-c4ccccc4NC(=O)c4cccc(-c5cccnc5)c4)nc3c2)CC1 [Compound 18] | 620 | 457
[2H]c1c([2H])c([2H])c(-c2cccc(C(=O)Nc3ccccc3-c3nc4cc(CN5CCCC5)cnc4s3)c2)c([2H])c1[2H] [Compound 147] | 845 | 224
O=C(Nc1ccccc1-c1nc2cc(CN3CCOCC3)cnc2s1)c1cn2cc(F)ccc2n1 [Compound 128] | 1310 | 227
COc1cc(C(=O)Nc2ccccc2-c2nc3cc(CN4CCOCC4)cnc3s2)nc2ccccc12 [Compound 105] | 1590 | 292
O=C(Nc1ccccc1-c1nc2cc(CN3CCCC3)cnc2s1)c1cccc(-c2cccc(F)c2)n1 [Compound 61] | 78 | > 500
CC(C)NCc1cnc2sc(-c3ccccc3NC(=O)c3cccc(-c4ccccc4)c3)nc2c1 [Compound 19] | 722 | 198
